Like-named read-outs stand apart in the source and are kept apart here.
How the values were obtained:
[1] = target: T1, cholesterol esterase (EC 3.1.1.13) from bovine pancreas (CEH) (Bos taurus, UniProt P30122); assay: CEH inhibition (cholesteryl ester formation from cholesterol and oleic acid by buffered cholesterol esterase); type: biochemical
T1 construct: purchased Sigma Company, St. Louis, Mo., U.S.A. C-1892; host or cells: bovine pancreas
T1 sequence (P30122 19-597): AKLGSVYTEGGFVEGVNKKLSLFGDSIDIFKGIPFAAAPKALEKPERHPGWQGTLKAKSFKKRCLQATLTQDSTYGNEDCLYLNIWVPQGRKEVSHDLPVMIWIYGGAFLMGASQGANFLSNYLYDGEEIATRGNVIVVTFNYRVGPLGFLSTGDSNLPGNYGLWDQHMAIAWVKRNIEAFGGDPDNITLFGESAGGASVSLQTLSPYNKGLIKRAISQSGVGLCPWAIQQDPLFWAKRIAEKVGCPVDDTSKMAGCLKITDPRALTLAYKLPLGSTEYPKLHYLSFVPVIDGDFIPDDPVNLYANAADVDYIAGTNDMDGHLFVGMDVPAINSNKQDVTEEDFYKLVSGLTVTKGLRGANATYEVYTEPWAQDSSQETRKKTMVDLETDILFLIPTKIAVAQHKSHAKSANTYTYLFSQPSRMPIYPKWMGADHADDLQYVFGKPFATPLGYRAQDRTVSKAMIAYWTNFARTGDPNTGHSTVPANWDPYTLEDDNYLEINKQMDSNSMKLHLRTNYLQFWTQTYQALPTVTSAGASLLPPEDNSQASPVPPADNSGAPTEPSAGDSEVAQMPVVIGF
Protocol: 2. The ability of the compounds of this invention to inhibit the formation of cholesteryl esters and thereby interfere with and prevent assimilation of cholesterol into the lymphatic system and ultimately the blood stream was established by incubating the compounds at 37° C. with a mixture of cholesterol and oleic acid in the presence of buffered cholesterol esterase [(EC 3.1.1.13) Sigma Company, St. Louis, Mo., U.S.A., No. C-1892, from bovine pancreas] and measuring the amount of ester formed, according to the procedure of Field, J. of Lipid Research, 25 389 (1984).

[2] = system: acyl-coenzyme A: cholesterol acyltransferase (ACAT); assay: ACAT inhibition (intracellular cholesterol esterification, procedure of Ross et al.); type: cell-based; details: for IC50: read-out: ACAT IC50
Source text: 1. The ability of the compounds of this invention to inhibit acyl-coenzyme A: cholesterol acyltransferase was established by initially showing that they inhibited intracellular cholesterol esterification by subjecting them to the standard experimental test procedure of Ross et al., J. Biol. Chem. 259, 815 (1984).

[3] = system: Absorption of 14C-cholesterol in normal rat; assay: In vivo cholesterol absorption, oral [4-14C] cholesterol, normal rats; details: read-out: Effect on Absorption of 14C-Chol., % Decrease
Protocol: The in vivo cholesterol absorption studies were conducted in normal rats by oral administration of the compound being tested in propylene glycol and olive oil followed by oral administration of [4-^14 C] cholesterol in propylene glycol and olive oil, otherwise following the procedure of Cayen et al., J. Lipid Res. 20 162 (1979). The serum radioactivity was measured at six hours after dosing. The results of this study are reported in the following table, where available, as percent decrease compared to control and in terms of the effective dose (ED50) inhibiting fifty-percent of the absorption of the control animals.

[4] = 37° C., bovine pancreas enzyme, read-out: CEH IC50
[5] = normal rat, oral, 6 hr, 10 mg/kg, serum radioactivity vs control
[6] = normal rat, oral, 6 hr, serum radioactivity vs control

Structure (SMILES)	IC50 [1, 4] [µM]	ACAT % inhibition at 25 μM [2] [%]	IC50 [2] [µM]	inhibition in vivo at 10 mg/kg [3, 5] [%]	also measured
CCCCCCCCNC(=O)OC1CCN(C(=O)Oc2ccc(Oc3ccccc3)cc2)CC1 [Example 4, 4-[[(Octylamino)carbonyl]oxy]-1-piperidinecarboxylic acid 4-phenoxyphenyl ester]	> 100	94	0.82		inhibition in vivo at 100 mg/kg ([3]; normal rat, oral, 6 hr, 100 mg/kg, serum radioactivity vs control): 92%
CNC(=O)OC1CCN(C(=O)Oc2ccc(Oc3ccccc3)cc2)CC1 [Example 11, 4-[[(Methylamino)carbonyl]oxy]-1-piperidinecarboxylic acid 4-phenoxyphenyl ester]					IC50 [1]: 2.1 µM
CCCCCCNC(=O)OC1CCN(C(=O)Oc2ccc(Oc3ccc(C)cc3)cc2)CC1 [Example 18, 4-[[(Hexylamino)carbonyl]oxy]-1-piperidinecarboxylic acid 4-(4-methylphenoxy)phenyl ester]	2			25	
CC(C)CCCC(C)NC(=O)OC1CCN(C(=O)Oc2ccc(Oc3ccccc3)cc2)CC1 (stereo not shown) [Example 8, 4-[[[(1,5-Dimethylhexyl)amino]carbonyl]oxy]-1-piperidinecarboxylic acid 4-phenoxyphenyl ester]	13				
CCCCCCCCCCCCNC(=O)OC1CCN(C(=O)Oc2ccc(Oc3ccccc3)cc2)CC1 [Example 6, 4-[[(Dodecylamino)carbonyl]oxy]-1-piperidinecarboxylic acid 4-phenoxyphenylester]	16	88	0.51	57	
CCCCCCNC(=O)OC1CCN(C(=O)Oc2ccc(Oc3ccccc3)cc2)CC1 [Example 3, 4-[[(Hexylamino)carbonyl]oxy]-1-piperidinecarboxylic acid 4-phenoxyphenyl ester]		94	0.64		IC50 [1]: 9.8 µM; inhibition in vivo at 10 mg/kg ([3]; Rattus norvegicus, po, 6 h): 85%
CC1CCN(C(=O)OC2CCN(C(=O)Oc3ccc(Oc4ccccc4)cc3)CC2)CC1 [Example 9]	1.1				
CCCCCCCN(Cc1ccc(CC(C)(C)C)cc1)C(=O)OC1CCN(C(=O)Oc2ccc(Oc3ccccc3)cc2)CC1 [Example 10, 4-[[[[[4-(2,2-Dimethylpropyl)phenyl]methyl]heptylamino]carbonyl]oxy]-1-piperidinecarboxylic acid 4-phenoxyphenyl ester]	> 100	84	3.3		
CCCCCCCC/C=C\CCCCCCCCNC(=O)OC1CCN(C(=O)Oc2ccc(Oc3ccccc3)cc2)CC1 [Example 14]	43				inhibition in vivo at 25 mg/kg [3, 6]: 21%
CCCCNC(=O)OC1CCN(C(=O)Oc2ccc(Oc3ccccc3)cc2)CC1 [Example 2, 4-[[(Butylamino)carbonyl]oxy]-1-piperidinecarboxylic acid 4-phenoxyphenyl ester]		96	2		IC50 [1]: 2.3 µM
O=C(NC1CCCCC1)OC1CCN(C(=O)Oc2ccc(Oc3ccccc3)cc2)CC1 [Example 5, 4-[[(Cyclohexylamino)carbonyl]oxy]-1-piperidinecarboxylic acid 4-phenoxyphenyl ester]	9.5	92	1.68	89	
O=C(NCC1CCCCC1)OC1CCN(C(=O)Oc2ccc(Oc3ccccc3)cc2)CC1 [Example 17, 4-[[[(Cyclohexylmethyl)amino]carbonyl]oxy]-1-piperidinecarboxylic acid 4-phenoxyphenyl ester]	19	97	0.49		inhibition in vivo at 3 mg/kg ([3]; normal rat, oral, 6 hr, 3 mg/kg, serum radioactivity vs control): 68%
O=C(NCCCCc1ccccc1)OC1CCN(C(=O)Oc2ccc(Oc3ccccc3)cc2)CC1 [Example 13, 4-[[[(4-Phenylbutyl)amino]carbonyl]oxy]-1-piperidinecarboxylic acid 4-phenoxyphenyl ester]	5	96	0.23	41	
CCCCCCCCCCCCCCCCCCNC(=O)OC1CCN(C(=O)Oc2ccc(Oc3ccccc3)cc2)CC1 [Example 7, 4-[[(Octadecylamino)carbonyl]oxy]-1-piperidinecarboxylic acid 4-phenoxyphenyl ester]	> 100				inhibition in vivo at 25 mg/kg [3, 6]: 28%
CCN(CC)C(=O)OC1CCN(C(=O)Oc2ccc(Oc3ccccc3)cc2)CC1 [Example 12, 4-[[(Diethylamino)carbonyl]oxy]-1-piperidinecarboxylic acid 4-phenoxyphenylester]		93	1.37		IC50 [1]: 11.4 µM
O=C(Oc1ccc(Oc2ccccc2)cc1)N1CCC(OC(=O)N2CCC(c3ccccc3)CC2)CC1 [Example 16, 4-Phenyl-1-piperidinecarboxylic acid 1-[(4-phenoxyphenoxy)carbonyl]-4-piperidinyl ester]	12	91	0.51	48	
CCCCCCNC(=O)OC1CCN(C(=O)Oc2ccc(Oc3ccc(OC)cc3)cc2)CC1 [Example 19, 4-[[(Hexylamino)carbonyl]oxy]-1-piperidinecarboxylic acid 4-(4-methoxyphenoxy)phenyl ester]	2.8			29	
O=C(Oc1ccc(Oc2ccccc2)cc1)N1CCC(OC(=O)N2CCSCC2)CC1 [Example 15, 4-Thiomorpholinecarboxylic acid 1-[(4-phenxoyphenoxy)carbonyl]-4-piperidinyl ester]	79				
